Experimental data: ChEMBL document CHEMBL2203020, “Development of Synthetic Aminopeptidase N/CD13 Inhibitors to Overcome Cancer Metastasis and Angiogenesis” (ACS Med Chem Lett, 2012)
Calls of active or inactive are those of the source. The calls are words filed in the database; no cut-off is given here.

Molecular target: T1, Aminopeptidase N (Sus scrofa, UniProt P15145)
T1 sequence (P15145 whole entry): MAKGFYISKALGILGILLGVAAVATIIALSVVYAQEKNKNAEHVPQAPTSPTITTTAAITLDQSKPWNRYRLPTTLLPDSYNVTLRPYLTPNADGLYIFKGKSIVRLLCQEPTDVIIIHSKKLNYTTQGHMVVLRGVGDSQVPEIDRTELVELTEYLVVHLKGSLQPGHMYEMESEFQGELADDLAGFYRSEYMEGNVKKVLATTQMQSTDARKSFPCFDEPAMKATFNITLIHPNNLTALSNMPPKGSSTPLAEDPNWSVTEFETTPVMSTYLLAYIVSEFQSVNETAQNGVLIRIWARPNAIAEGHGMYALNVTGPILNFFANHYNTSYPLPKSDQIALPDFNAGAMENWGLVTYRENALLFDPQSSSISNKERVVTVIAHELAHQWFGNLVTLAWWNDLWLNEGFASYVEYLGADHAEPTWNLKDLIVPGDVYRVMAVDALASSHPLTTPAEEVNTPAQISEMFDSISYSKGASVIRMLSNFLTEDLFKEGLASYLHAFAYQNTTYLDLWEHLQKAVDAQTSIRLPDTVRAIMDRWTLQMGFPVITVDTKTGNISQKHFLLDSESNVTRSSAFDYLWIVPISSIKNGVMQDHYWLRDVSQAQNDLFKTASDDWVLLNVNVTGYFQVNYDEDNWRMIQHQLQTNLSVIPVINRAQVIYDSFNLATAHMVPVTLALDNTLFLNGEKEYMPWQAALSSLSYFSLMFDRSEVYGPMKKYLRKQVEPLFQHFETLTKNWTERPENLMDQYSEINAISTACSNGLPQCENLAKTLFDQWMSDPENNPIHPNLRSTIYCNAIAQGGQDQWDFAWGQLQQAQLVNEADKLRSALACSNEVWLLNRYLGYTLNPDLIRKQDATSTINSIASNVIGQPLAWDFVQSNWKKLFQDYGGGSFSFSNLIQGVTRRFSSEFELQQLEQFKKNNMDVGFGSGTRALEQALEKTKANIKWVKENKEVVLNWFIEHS
Assay: Inhibition of APN in porcine kidney microsome assessed as inhibition of L-Leu-p-nitroanilide substrate hydrolysis incubated for 5 mins before substrate addition by UV-Vis spectrophotometric analysis
Type: microsomes
Settings: not given

| IC50 [µM] | Compound |
| --- | --- |
| 0.73 | CC(C)C[C@H](NC(=O)NCc1ccc(F)cc1)C(=O)NO |
| > 10 | CC(C)C[C@H](NC(=O)Cc1ccccc1)C(=O)NO |
| > 10 | CC(C)C[C@H](NC(=O)OCCCc1ccccc1)C(=O)NO |
| 3.4 | CC(C)C[C@H](NC(=O)NCCCc1ccccc1)C(=O)NO |
| 2.1 | CC(C)C[C@H](NC(=O)Nc1ccc(-c2ccccc2)cc1)C(=O)NO |
| 2.7 | CC(C)C[C@H](NC(=O)Nc1ccccc1)C(=O)NO |

The remaining lines, values behind:

| Compound | IC50 [µM] |
| --- | --- |
| O=C(NCCc1ccccc1)N[C@H](C(=O)NO)c1ccccc1 | 1.9 |
| Cc1ccc(NC(=O)N[C@@H](CC(C)C)C(=O)NO)cc1 | 0.33 |
| O=C(Nc1ccccc1)N[C@H](C(=O)NO)c1ccccc1 | 5.9 |
| CC[C@H](C)[C@H](NC(=O)NCCCCc1ccccc1)C(=O)NO | > 10 |
| O=C(Nc1ccc(F)cc1)N[C@H](C(=O)NO)c1ccccc1 | 9.9 |
| CC(C)C[C@H](NC(=O)Nc1ccc(F)cc1)C(=O)NO | 2.5 |
| O=C(NCCCCc1ccccc1)N[C@H](C(=O)NO)c1ccccc1 | 5.5 |
| COc1ccc(NC(=O)N[C@@H](CC(C)C)C(=O)NO)cc1 | 0.57 |
| COc1ccc(CNC(=O)N[C@@H](CC(C)C)C(=O)NO)cc1 | 0.83 |
| CC(C)C[C@H](NC(=O)NCc1ccco1)C(=O)NO | 2.3 |

Test system: not listed separately
Assay: Cytotoxicity against human ES2 cells assessed as cell growth inhibition rate at 5 ug/ml after 24 hrs by MTT assay
Type: cell-based
Settings: read-out: GI

| Compound | inhibition at 24 h, 5 ug/ml [%] |
| --- | --- |
| Cc1ccc(NC(=O)N[C@@H](CC(C)C)C(=O)NO)cc1 | < 1 |
| CC(C)C[C@H](NC(=O)NCc1ccc(F)cc1)C(=O)NO | < 1 |
| COc1ccc(NC(=O)N[C@@H](CC(C)C)C(=O)NO)cc1 | < 1 |
| COc1ccc(CNC(=O)N[C@@H](CC(C)C)C(=O)NO)cc1 | < 1 |

Molecular target: Aminopeptidase N (Homo sapiens, UniProt P15144)
Sequence (P15144 whole entry): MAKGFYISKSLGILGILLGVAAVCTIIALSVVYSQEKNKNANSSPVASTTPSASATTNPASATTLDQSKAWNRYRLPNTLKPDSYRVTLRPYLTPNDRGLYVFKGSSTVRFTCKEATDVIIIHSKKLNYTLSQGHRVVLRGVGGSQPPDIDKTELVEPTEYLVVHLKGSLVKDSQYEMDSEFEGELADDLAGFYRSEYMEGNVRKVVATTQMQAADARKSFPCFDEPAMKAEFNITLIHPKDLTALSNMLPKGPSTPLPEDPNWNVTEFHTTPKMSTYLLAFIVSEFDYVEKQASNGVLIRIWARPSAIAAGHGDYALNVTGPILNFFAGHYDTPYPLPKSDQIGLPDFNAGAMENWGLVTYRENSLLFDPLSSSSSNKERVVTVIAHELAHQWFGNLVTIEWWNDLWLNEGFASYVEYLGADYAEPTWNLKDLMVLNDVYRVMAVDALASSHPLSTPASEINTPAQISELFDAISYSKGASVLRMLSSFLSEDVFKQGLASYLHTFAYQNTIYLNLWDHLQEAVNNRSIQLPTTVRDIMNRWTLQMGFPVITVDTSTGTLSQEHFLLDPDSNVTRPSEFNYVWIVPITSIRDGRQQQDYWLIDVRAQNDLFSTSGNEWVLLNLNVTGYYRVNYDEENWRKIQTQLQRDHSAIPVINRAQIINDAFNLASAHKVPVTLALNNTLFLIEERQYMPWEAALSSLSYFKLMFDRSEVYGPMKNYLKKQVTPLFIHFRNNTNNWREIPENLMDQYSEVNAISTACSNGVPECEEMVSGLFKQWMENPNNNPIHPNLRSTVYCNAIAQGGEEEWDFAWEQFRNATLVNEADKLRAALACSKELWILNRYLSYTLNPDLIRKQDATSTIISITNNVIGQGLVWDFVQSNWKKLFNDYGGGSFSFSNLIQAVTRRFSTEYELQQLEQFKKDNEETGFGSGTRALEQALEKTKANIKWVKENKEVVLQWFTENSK
Assay: Inhibition of APN in human ES2 cell surface assessed as inhibition of L-Leu-p-nitroanilide substrate hydrolysis incubated for 5 mins before substrate addition by UV-Vis spectrophotometric analysis
Settings: not given

| IC50 [µM] | Compound |
| --- | --- |
| 0.94 | Cc1ccc(NC(=O)N[C@@H](CC(C)C)C(=O)NO)cc1 |
| 0.91 | CC(C)C[C@H](NC(=O)NCc1ccc(F)cc1)C(=O)NO |
| 6.4 | COc1ccc(NC(=O)N[C@@H](CC(C)C)C(=O)NO)cc1 |
| 6.9 | COc1ccc(CNC(=O)N[C@@H](CC(C)C)C(=O)NO)cc1 |

Molecular target: 72 kDa type IV collagenase (Homo sapiens, UniProt P08253)
Sequence (P08253 whole entry): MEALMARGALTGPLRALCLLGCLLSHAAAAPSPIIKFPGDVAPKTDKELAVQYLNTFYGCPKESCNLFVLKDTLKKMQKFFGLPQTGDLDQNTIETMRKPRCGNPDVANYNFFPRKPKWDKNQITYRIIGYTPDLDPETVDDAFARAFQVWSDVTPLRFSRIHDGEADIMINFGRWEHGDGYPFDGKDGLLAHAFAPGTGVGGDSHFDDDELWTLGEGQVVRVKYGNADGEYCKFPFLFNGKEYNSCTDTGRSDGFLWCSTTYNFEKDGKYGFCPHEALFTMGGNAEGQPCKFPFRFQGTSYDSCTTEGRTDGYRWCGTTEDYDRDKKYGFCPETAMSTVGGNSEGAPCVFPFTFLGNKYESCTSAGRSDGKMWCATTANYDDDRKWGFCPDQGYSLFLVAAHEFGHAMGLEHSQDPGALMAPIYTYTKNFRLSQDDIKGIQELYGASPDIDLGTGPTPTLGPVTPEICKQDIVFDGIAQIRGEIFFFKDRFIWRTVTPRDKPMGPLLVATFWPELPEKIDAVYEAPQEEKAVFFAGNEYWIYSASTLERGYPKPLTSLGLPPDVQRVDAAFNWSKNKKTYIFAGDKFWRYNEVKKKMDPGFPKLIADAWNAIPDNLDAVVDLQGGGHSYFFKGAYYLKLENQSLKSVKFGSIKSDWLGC
Assay: Inhibition of recombinant MMP-2 using succinylated gelatin as substrate incubated for 10 mins before addition of substrate measured after 60 mins by UV-Vis spectrophotometric analysis
Settings: not given

| IC50 [µM] | Compound |
| --- | --- |
| 573 | Cc1ccc(NC(=O)N[C@@H](CC(C)C)C(=O)NO)cc1 |
| > 1000 | CC(C)C[C@H](NC(=O)NCc1ccc(F)cc1)C(=O)NO |
| > 1000 | COc1ccc(NC(=O)N[C@@H](CC(C)C)C(=O)NO)cc1 |
| > 1000 | COc1ccc(CNC(=O)N[C@@H](CC(C)C)C(=O)NO)cc1 |

Test system: ES2
Assay: Inhibition of human ES2 cell migration at 150 uM by crystal violet staining based microscopic analysis
Type: functional
Settings: not given

| Compound | inhibition |
| --- | --- |
| Cc1ccc(NC(=O)N[C@@H](CC(C)C)C(=O)NO)cc1 | Active |

Test system: ES2
Assay: Inhibition of human ES2 cell invasion after 8 hrs by Matrigel invasion assay
Type: functional, cell-based
Settings: not given

| Compound | inhibition |
| --- | --- |
| Cc1ccc(NC(=O)N[C@@H](CC(C)C)C(=O)NO)cc1 | Dose-dependent effect |

Test system: not listed separately
Assay: Cytotoxicity against human ES2 cells assessed as cell growth inhibition rate at 50 ug/ml after 24 hrs by MTT assay
Type: cell-based
Settings: read-out: GI

| Compound | inhibition at 24 h, 50 ug/ml [%] |
| --- | --- |
| Cc1ccc(NC(=O)N[C@@H](CC(C)C)C(=O)NO)cc1 | 1.78 |
| CC(C)C[C@H](NC(=O)NCc1ccc(F)cc1)C(=O)NO | 11.9 |
| COc1ccc(NC(=O)N[C@@H](CC(C)C)C(=O)NO)cc1 | 6.85 |
| COc1ccc(CNC(=O)N[C@@H](CC(C)C)C(=O)NO)cc1 | < 1 |
